Reference: ChEMBL document CHEMBL1125519, “Thieno[2,3-b]furan-2-sulfonamides as topical carbonic anhydrase inhibitors” (J Med Chem, 1992)
Values after ≈ are worked out from the molar mass of the structure shown.

Columns and labels:
Carbonic anhydrase 2 [1] = molecular target: T1, Carbonic anhydrase 2 (Homo sapiens, UniProt P00918)
Description: Compound was evaluated for the inhibition of dansylamide at human carbonic anhydrase II

physchem [2] = details: water
Description: Solubility was evaluated in water at 25 degree Centigrade

physchem [3] = details: 30% ethanol
Bos taurus [4] = species: Bos taurus
Carbonic anhydrase 2 [5] = molecular target: T1, Carbonic anhydrase 2; remark: listed apart in the source
Description: Inhibition of human erythrocyte carbonic anhydrase II

physchem [6] = details: water; remark: listed apart in the source
[7] = Solubility was evaluated at pH 7.4 buffer at 25 degree Centigrade; assay type: physicochemical
Bos taurus [8] = species: Bos taurus; experiment: Percentage binding to bovine iris and ciliary body; assay type: functional
Bos taurus [9] = species: Bos taurus; experiment: Percentage binding of bovine ocular pigment; assay type: functional, Eye
Oryctolagus cuniculus = species: Oryctolagus cuniculus; experiment: Compound was evaluated for the lowering of the intraocular pressure (IOP) (2%, 3 drops) in ocular normotensive pigmented rabbits; assay type: functional, Eye
[10] = pKa in water; assay type: physicochemical

SMILES | Ki (Carbonic anhydrase 2 [1]) | solubility (physchem [2]) | pKa (physchem [3]) | Pigment binding (Bos taurus [4]) | IC50 (Carbonic anhydrase 2 [5]) | pKa (physchem [6]) | solubility [7] | Pigment binding (Bos taurus [8]) | Binding (Bos taurus [9]) | IOP lowering (Oryctolagus cuniculus) | pKa [10]
NS(=O)(=O)c1cc2cc(CNCCF)sc2o1 | 3.4 nM | > 32 mg/mL | 9 | 60% | 12 nM | 6.55 |  |  |  |  | 
NS(=O)(=O)c1cc2cc(CNCc3ccccn3)sc2o1 | 8.2 nM | 20.4 mg/mL (≈ 63.1 mM) | 9.08 | 69% | 8.2 nM | 7.02 | 16.9 mg/mL (≈ 52.3 mM) |  |  |  | 
CNCc1cc2cc(S(N)(=O)=O)oc2s1 | 32.3 nM | > 51 mg/mL | 9.25 |  | 9 nM | 7.85 |  | 77% |  |  | 
COCCN(CCOC)Cc1cc2cc(S(N)(=O)=O)oc2s1 | 2.6 nM | > 30 mg/mL | 8.95 |  | 5.1 nM | 5.57 |  | 27% | 26.9% | 3.9 mmHg | 
COCCOCCN(CCOC)Cc1cc2cc(S(N)(=O)=O)oc2s1 | 3.6 nM |  | 8.85 | 21% | 6.49 nM | 5.55 |  |  |  |  | 
CCOCCNCc1cc2cc(S(N)(=O)=O)oc2s1 |  | 40.8 mg/mL (≈ 134 mM) | 8.9 |  | 8 nM |  | 19.7 mg/mL (≈ 64.7 mM) | 75% |  |  | 6.85
NS(=O)(=O)c1cc2cc(CN3CCOCC3)sc2o1 | 1.24 nM | > 4.7 mg/mL | 9.2 |  | 5.6 nM |  | 0.97 mg/mL (≈ 3.21 mM) | 25% | 24.8% | 2.5 mmHg | 5.32
CC(C)CNCc1cc2cc(S(N)(=O)=O)oc2s1 | 7.4 nM | 15.3 mg/mL (≈ 53.1 mM) | 9.1 |  | 6 nM | 7.55 |  | 73% |  |  | 
COCCCNCc1cc2cc(S(N)(=O)=O)oc2s1 |  | > 34 mg/mL | 9 | 78% | 12 nM | 7.25 |  |  |  |  | 
NS(=O)(=O)c1cc2cc(CNCCCCO)sc2o1 |  | > 47 mg/mL | 9.16 |  | 11 nM | 7.65 |  |  |  |  | 
COCCNCc1cc2cc(S(N)(=O)=O)oc2s1 |  | > 27 mg/mL | 9.05 |  | 11 nM |  | > 27 mg/mL | 73% |  |  | 7
CCCNCc1cc2cc(S(N)(=O)=O)oc2s1 |  | > 22.5 mg/mL | 9.4 |  | 8 nM | 7.85 |  | 68% |  |  | 
